Data set [1] is described as follows: Cytotoxicity against human NCI60 cells. It is filed as functional. To be noted: for TGI: read-out: pGI100 (converted).
For data set [2], the system named is Human immunodeficiency virus. Description: Antiviral activity against HIV. The data set is classed as functional, organism-based. To be noted: Human immunodeficiency virus 1.
The next data set deals with CAKI-1. Description: Cytotoxicity against human Caki1 cells. It is filed as functional. The settings on record: read-out: ED50 (the source's name).
For another data set, the system named is MCF7. Nature of the data set: Cytotoxicity against human MCF7 cells. The settings on record: for EC50: read-out: ED50 (the source's name). The data set is classed as functional.
In data set [3] the target is DNA topoisomerase 2-alpha (Homo sapiens) (UniProt P11388). Description: Inhibition of topoisomerase 2.
DNA topoisomerase 2-alpha (Homo sapiens), sequence (P11388 whole entry): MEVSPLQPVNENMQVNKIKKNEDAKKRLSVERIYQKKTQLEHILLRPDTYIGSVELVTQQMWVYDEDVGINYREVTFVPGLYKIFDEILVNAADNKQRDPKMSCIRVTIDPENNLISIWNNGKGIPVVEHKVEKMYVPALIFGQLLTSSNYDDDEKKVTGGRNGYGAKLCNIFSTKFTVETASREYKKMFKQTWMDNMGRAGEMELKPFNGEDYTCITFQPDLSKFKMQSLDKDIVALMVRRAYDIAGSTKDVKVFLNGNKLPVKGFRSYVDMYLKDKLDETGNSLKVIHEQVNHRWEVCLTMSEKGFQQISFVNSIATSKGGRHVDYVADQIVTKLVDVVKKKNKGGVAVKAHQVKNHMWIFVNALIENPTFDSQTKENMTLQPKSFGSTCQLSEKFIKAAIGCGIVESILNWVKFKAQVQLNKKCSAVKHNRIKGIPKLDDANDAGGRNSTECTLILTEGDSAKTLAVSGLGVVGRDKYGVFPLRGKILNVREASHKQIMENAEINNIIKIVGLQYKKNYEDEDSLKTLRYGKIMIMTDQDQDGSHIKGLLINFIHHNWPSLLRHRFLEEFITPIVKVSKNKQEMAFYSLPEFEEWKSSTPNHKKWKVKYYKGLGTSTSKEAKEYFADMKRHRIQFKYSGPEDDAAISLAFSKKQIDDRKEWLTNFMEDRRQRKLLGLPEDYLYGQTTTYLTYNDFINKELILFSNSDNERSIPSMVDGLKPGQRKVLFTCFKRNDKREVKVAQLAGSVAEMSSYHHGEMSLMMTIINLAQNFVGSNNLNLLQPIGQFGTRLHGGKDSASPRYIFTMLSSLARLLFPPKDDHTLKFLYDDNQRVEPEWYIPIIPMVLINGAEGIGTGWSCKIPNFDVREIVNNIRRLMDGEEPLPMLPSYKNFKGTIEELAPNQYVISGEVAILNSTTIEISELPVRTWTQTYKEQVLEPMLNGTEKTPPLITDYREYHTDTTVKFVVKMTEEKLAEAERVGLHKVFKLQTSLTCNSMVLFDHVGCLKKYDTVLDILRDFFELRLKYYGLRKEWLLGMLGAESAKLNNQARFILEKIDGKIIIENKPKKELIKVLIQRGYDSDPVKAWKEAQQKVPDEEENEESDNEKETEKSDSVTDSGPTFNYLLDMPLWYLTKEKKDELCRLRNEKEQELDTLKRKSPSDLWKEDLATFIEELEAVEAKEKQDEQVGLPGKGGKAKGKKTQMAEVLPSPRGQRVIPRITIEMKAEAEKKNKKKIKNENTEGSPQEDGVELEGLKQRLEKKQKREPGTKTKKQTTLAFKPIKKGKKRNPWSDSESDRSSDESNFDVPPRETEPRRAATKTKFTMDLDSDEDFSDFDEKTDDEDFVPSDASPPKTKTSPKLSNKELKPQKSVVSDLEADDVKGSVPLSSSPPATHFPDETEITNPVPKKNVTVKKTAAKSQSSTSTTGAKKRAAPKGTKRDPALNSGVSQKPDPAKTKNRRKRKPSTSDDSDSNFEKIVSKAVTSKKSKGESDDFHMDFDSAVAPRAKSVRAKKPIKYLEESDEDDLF
Data set [4] is described as follows: Inhibition of tubulin polymerization.
Data set [5] deals with DNA topoisomerase 2-alpha (Homo sapiens) (UniProt P11388). Nature of the data set: Inhibition of human DNA topoisomerase 2 assessed as DNA cleavage at 20 uM.
Data set [6] has the same target. Nature of the data set: Inhibition of human DNA topoisomerase 2.
Data set [7] in a line: Cytotoxicity against human renal cancer cells. To be noted: Cancer cell lines. It is filed as functional.
The nature of data set [8]: Cytotoxicity against human melanoma cells. The data set is classed as functional. The settings on record: Melanoma cell.
For a further data set, the system named is Mus musculus. Nature of the data set: Toxicity in ip dosed nude mouse. The data set is classed as organism-based. The settings on record: in vivo.
A further data set deals with KB. Description: Cytotoxicity against human KB cells. The data set is classed as functional. To be noted: for EC50: read-out: ED50 (the source's name); for IC50: read-out: ID50 (the source's name); for CC50: read-out: LD50 (the source's name).
For another data set, the system named is RPMI-7951. Description: Cytotoxicity against human RPMI7951 cells. The data set is classed as functional. The settings on record: read-out: ED50 (the source's name).
In a further data set the test system is A549. Description: Cytotoxicity against human A549 cells. It is filed as functional. The settings on record: read-out: ED50 (the source's name).
The next data set relates to SK-MEL-2. Description: Cytotoxicity against human SK-MEL-2 cells. The data set is classed as functional. To be noted: read-out: ED50 (the source's name).
For the next data set, the system named is HCT-8. Description: Cytotoxicity against human HCT8 cells. The data set is classed as functional. The settings on record: read-out: ED50 (the source's name).
A further data set has as its system MOLT-4. Nature of the data set: Cytotoxicity against human MOLT4 cells. It is filed as functional.

Molecules are shown by their SMILES. Converted amounts (≈) assume the structure as drawn. The source made the active and inactive calls. The rule behind the calls is not given here.

Regarding `Cc1cnc2[nH]c(-c3cccc(F)c3)cc(=O)c2c1`, in data set [1], growth was halved (GI50) at 269 nM and the TGI was 72400 nM.
In data set [2], `CC1(C)CC[C@]2(C(=O)O)CC[C@]3(C)C(=CC[C@@H]4[C@@]5(C)CC[C@H](OC(=O)CC(C)(C)C(=O)O)C(C)(C)[C@@H]5CC[C@]43C)[C@H]2C1` registered an EC50 of 0.0039 µg/mL.
The compound `C=C(C)[C@@H]1CC[C@]2(C(=O)O)CC[C@]3(C)[C@H](CC[C@@H]4[C@@]5(C)CC[C@H](OC(=O)CC(C)(C)C(=O)O)C(C)(C)[C@@H]5CC[C@]43C)[C@@H]12` [BEVIRIMAT] yielded an EC50 in data set [2] below 0.35 nM.
As for `CC(=O)N[C@H]1CCc2cc(O)c(O)c(O)c2-c2ccc(NC(=O)c3ccc(Cl)cc3)c(=O)cc21`, the EC50 with CAKI-1 amounted to 0.98 µg/mL (≈ 2.04 µM); in the data set on MCF7 it was 0.48 µg/mL (≈ 0.998 µM). Further, the result in data set [3] was Active.
For `COc1cccc(-c2cc(=O)c3ccc(C)nc3[nH]2)c1`, in [1], the concentration for 50% growth inhibition (GI50) is 269 nM and the TGI was 72400 nM.
In data set [2], `CC(=O)O[C@@H]1[C@H](OC(=O)CC(C)C)c2c(ccc3ccc(=O)oc23)OC1(C)C` [SUKSDORFIN] came in with an EC50 of 1300 nM.
Take `CNc1ccc2c(cc1=O)[C@@H](NC(C)=O)CCc1cc(O)c(O)c(O)c1-2`: the EC50 in the data set with CAKI-1 worked out at 0.72 µg/mL (≈ 2.02 µM); with MCF7, 0.36 µg/mL (≈ 1.01 µM). The outcome in [3] was Active.
Compound `COc1cc2c(c(OC)c1OC)-c1ccc(OC)c(=O)cc1[C@@H](NC(C)=O)CC2` [COLCHICINE] had an IC50 in [4] of 650 nM.
In the case of `COc1c2c(cc3c1-c1c(cc4c(c1OC)OCO4)C[C@H](C)[C@H](C)C3)OCO2` [SCHISANDRIN C], in data set [2], the EC50 worked out at 1.2 µg/mL.
In the case of `COc1cc([C@@H]2c3cc4c(cc3[C@@H](Nc3ccc(F)cc3)[C@H]3COC(=O)[C@H]23)OCO4)cc(OC)c1O`, the inhibition in [5] turned out to be 139%. This compound also showed an ID50 in [6] of 50000 nM.
For `Cc1cnc2[nH]c(-c3cccc(Cl)c3)cc(=O)c2c1`, in [1], halving of growth (GI50) required 269 nM and the TGI is 72400 nM.
In the case of `O=c1cc(-c2ccccc2F)[nH]c2ccc(N3CCCC3)cc12`, the concentration for 50% growth inhibition (GI50) in data set [7] was 22.4 nM; in data set [8] it was at most 10 nM.
As for `CC[C@@]1(O)C(=O)OCc2c1cc1n(c2=O)Cc2c-1nc1ccccc1c2/C=N/c1ccccc1N[C@@H]1c2cc3c(cc2[C@@H](c2cc(OC)c(O)c(OC)c2)[C@H]2C(=O)OC[C@@H]21)OCO3`, the LD50 with Mus musculus is above 50 mg/kg/day.
In [2], `CC1(C)CC[C@]2(C(=O)O)CC[C@]3(C)C(=CC[C@@H]4[C@@]5(C)CC[C@H](O)C(C)(C)[C@@H]5CC[C@]43C)[C@@H]2C1` [OLEANOLIC_ACID] came in with an EC50 of 1.7 µg/mL.
The same measure, in the same setting: for `COc1cc2c(c(OC)c1OC)-c1c(cc3c(c1OC)OCO3)[C@H](OC(=O)c1ccccc1)[C@@](C)(O)[C@@H](C)C2` [GOMISIN G] the value was 0.006 µg/mL; for `COc1cc2c(c(OC)c1OC)-c1c(cc3c(c1OC)OCO3)C[C@@H](C)[C@@H](C)C2` [KADSURANIN], 0.8 µg/mL; for `CC1(C)C=C2[C@H]3CC[C@@H]4[C@@]5(C)CCC(=O)C(C)(C)[C@@H]5CC[C@@]4(C)[C@]3(C)CC[C@@]2(C(=O)O)CC1` [MORONIC ACID], below 0.1 µg/mL.
For the compound `COC(=O)[C@@]12OC[C@]34[C@H](OC(=O)C[C@@H]13)[C@H](OC(=O)C=C(C)C)[C@H]1C(C)=C(O[C@@H]3O[C@H](CO)[C@@H](O)[C@H](O)[C@H]3O)C(=O)C[C@]1(C)[C@H]4[C@@H](O)[C@@H]2O` [BRUCEOSIDE C], the EC50 in the data set on KB and in the data set with RPMI-7951 was below 0.1 µg/mL throughout.
In data set [4], `COc1cc2c(c(OC)c1OC)-c1ccc(SC)c(=O)cc1C(=O)CC2` [THIOCOLCHICONE] yielded an IC50 of 560 nM.
As for `COc1cc([C@@H]2c3cc4c(cc3[C@@H](Nc3ccccc3)[C@H]3COC(=O)[C@H]23)OCO4)cc(OC)c1O`, the inhibition in [5] stood at 125%. In [6], this compound had an ID50 of 50000 nM.
Turning to `Cc1ccc2c(=O)cc(-c3cccc(F)c3)[nH]c2n1`, in data set [1], the GI50 is 269 nM and the TGI was 72400 nM.
For the compound `COc1cc2c(c(OC)c1OC)-c1ccc(SC)c(=O)cc1[C@@H](O)CC2`, the IC50 in [4] was 560 nM.
`COc1cccc([C@@H]2CC(=O)c3cc(N4CCCC4)ccc3N2)c1`: the EC50 with A549, in the data set on CAKI-1, in the data set on SK-MEL-2, with MCF7, in the data set with KB and in the data set with HCT-8 was 0.008 µg/mL (≈ 0.0248 µM) in each case.
In data set [4], `COc1cc2c(c(OC)c1OC)-c1ccc(SC)c(=O)cc1[C@@H](OC(=O)c1ccncc1)CC2` gave an IC50 of 560 nM.
Regarding `COc1c2c(cc3c1-c1c(cc4c(c1OC)OCO4)[C@H](OC(=O)c1ccccc1)[C@@](C)(O)[C@@H](C)C3)OCO2` [SCHISANTHERIN D], in [2], the EC50 came out at 0.5 µg/mL.
The compound `COc1cc2c(c(OC)c1OC)-c1ccc(SC)c(=O)cc1[C@@H](OC(C)=O)CC2` yielded an IC50 in data set [4] of 560 nM.
The compound `Cc1cc(=O)oc2c3c(ccc12)OC(C)(C)[C@H](OC(=O)C12CCC(C)(C(=O)O1)C2(C)C)[C@@H]3OC(=O)C12CCC(C)(C(=O)O1)C2(C)C` (stereo partly drawn) had an EC50 in [2] of 0.00016 nM.
As to `COc1cc([C@@H]2c3cc4c(cc3[C@@H](O[C@@H]3O[C@@H]5CO[C@@H](C)O[C@H]5[C@H](O)[C@H]3O)[C@H]3COC(=O)[C@H]23)OCO4)cc(OC)c1O` [ETOPOSIDE], in the data set with KB, the IC50 was found to be 200 nM and the CC50 was found to be 3000 nM. In [3], this compound registered an IC100 of 100 µM.
`COc1cc([C@@H]2c3cc4c(cc3[C@@H](Nc3ccc(NC(=O)c5cc([N+](=O)[O-])cn5C)cc3)[C@H]3COC(=O)[C@H]23)OCO4)cc(OC)c1O`: the GI50 in the data set on MOLT-4 and in the data set on MCF7 was below 10 nM each time. For the same compound, in the data set with KB, the IC50 turned out to be 40 nM. In addition, the CC50 in the data set on KB was 150 nM. For the same compound, the IC100 in data set [3] came to 12.5 µM.
For `CC1(C)Oc2ccc3ccc(=O)oc3c2[C@@H](OC(=O)C23CCC(C)(C(=O)O2)C3(C)C)[C@H]1OC(=O)C12CCC(C)(C(=O)O1)C2(C)C` (stereo partly drawn), the EC50 in data set [2] amounted to 0.4 nM.
